What all share (type): functional
The subject of experiment [1] is K562. Nature of the experiment: Cell cycle arrest in human K562 cells assessed as accumulation in S phase at 10 uM after 24 hrs by flow cytometry analysis.
The test system of experiment [2] is K562. Put plainly: Cell cycle arrest in human K562 cells assessed as accumulation in G0/G1 phase at 10 uM after 24 hrs by flow cytometry analysis. A general note: In flow cytometry, cells or beads pass a laser one at a time.
The subject of experiment [3] is K562. Put plainly: Cell cycle arrest in human K562 cells assessed as accumulation in Sub-G1 phase at 10 uM after 24 hrs by flow cytometry analysis.
Experiment [4] has as its system K562. Put plainly: Cell cycle arrest in human K562 cells assessed as accumulation in G2/M phase at 10 uM after 24 hrs by flow cytometry analysis.

Data on one compound can be found in ChEMBL document CHEMBL1152853, “Synthesis and biological evaluation of novel symmetry bis-enediynes” (2009).

Turning to `COc1cc2c(c(OC)c1OC)-c1ccc(OC)c(=O)cc1[C@@H](NC(C)=O)CC2` [COLCHICINE], the Activity was 16.6% in experiment [1], 8.8% in experiment [2], 14.59% in experiment [3] and 74.6% in experiment [4].
